Measurements taken from US20150056702A1, “METHOD AND KIT FOR CULTURING STEM CELLS” (China Medical University, priority 2013, published 2015).

System: ES cells
Assay: DNA microarray analysis of ES cells
Type: cell-based, mouse
Settings: ES cells, 24 hours
Description: The DNA microarray analysis was used to determine whether the gene expression profiles in various pathways in cells will be affected when the cells were cultured by a BP-containing medium.
An experimental group medium (BP10 or BP 40), a LIF-containing medium (without BP), and a control group medium (without BP) were used respectively in a 6-well culture dish to culture ES cells with an initial density of 1×10^4 per well for 24 hours. Next, performing total RNA extraction and the obtained RNA was labeled with Cy3. Samples were hybridized to Agilent Mouse G3 Whole Genome Oligo 86×60K microarrays (Agilent) according to the manufacturer's instructions. Arrays were scanned with a Microarray Scanner System and data was analyzed by using a GeneSpring GX software (Agilent).
According to the related research at present, the Jak-Stat signaling pathway is the most relevant in terms of stem cell self-renewal and pluripotency maintenance.

[1] = BP10 medium (about 10 μg BP/ml)

SMILES: CCCC=C1OC(=O)c2ccccc21 [BP, n-butylidenephthalide]
- Amino acid metabolism: % of genes regulated [1]: 4.3%
- Amino acid metabolism: D, number of down-regulated genes [1]: 1
- Amino acid metabolism: I, number of up-regulated genes [1]: 0
- Amino acid metabolism: No. (regulated genes/genes of function) [1]: 1/23
- Apoptosis: % of genes regulated [1]: 11.7%
- Apoptosis: D, number of down-regulated genes [1]: 8
- Apoptosis: I, number of up-regulated genes [1]: 3
- Apoptosis: No. (regulated genes/genes of function) [1]: 11/94
- Calcium signaling pathway: % of genes regulated [1]: 21.9%
- Calcium signaling pathway: D, number of down-regulated genes [1]: 28
- Calcium signaling pathway: I, number of up-regulated genes [1]: 4
- Calcium signaling pathway: No. (regulated genes/genes of pathway) [1]: 32/146
- Cell adhesion molecules: % of genes regulated [1]: 22%
- Cell adhesion molecules: D, number of down-regulated genes [1]: 20
- Cell adhesion molecules: I, number of up-regulated genes [1]: 13
- Cell adhesion molecules: No. (regulated genes/genes of function) [1]: 33/150
- Cell communication: % of genes regulated [1]: 21.7%
- Cell communication: D, number of down-regulated genes [1]: 17
- Cell communication: I, number of up-regulated genes [1]: 3
- Cell communication: No. (regulated genes/genes of function) [1]: 20/92
- Cell cycle: % of genes regulated [1]: 2.5%
- Cell cycle: D, number of down-regulated genes [1]: 4
- Cell cycle: I, number of up-regulated genes [1]: 0
- Cell cycle: No. (regulated genes/genes of function) [1]: 4/163
- ECM-receptor interaction: % of genes regulated [1]: 28.4%
- ECM-receptor interaction: D, number of down-regulated genes [1]: 18
- ECM-receptor interaction: I, number of up-regulated genes [1]: 3
- ECM-receptor interaction: No. (regulated genes/genes of pathway) [1]: 21/74
- Insulin signaling pathway: % of genes regulated [1]: 9.8%
- Insulin signaling pathway: D, number of down-regulated genes [1]: 7
- Insulin signaling pathway: I, number of up-regulated genes [1]: 3
- Insulin signaling pathway: No. (regulated genes/genes of pathway) [1]: 10/102
- JAK-STAT signaling pathway: % of genes regulated [1]: 27.9%
- JAK-STAT signaling pathway: D, number of down-regulated genes [1]: 30
- JAK-STAT signaling pathway: I, number of up-regulated genes [1]: 9
- JAK-STAT signaling pathway: No. (regulated genes/genes of pathway) [1]: 39/140
- Lipid metabolism: % of genes regulated [1]: 16.5%
- Lipid metabolism: D, number of down-regulated genes [1]: 15
- Lipid metabolism: I, number of up-regulated genes [1]: 3
- Lipid metabolism: No. (regulated genes/genes of function) [1]: 18/109
- MAPK signaling: % of genes regulated [1]: 10.6%
- MAPK signaling: D, number of down-regulated genes [1]: 17
- MAPK signaling: I, number of up-regulated genes [1]: 7
- MAPK signaling: No. (regulated genes/genes of pathway) [1]: 24/227
- PPAR signaling pathway: % of genes regulated [1]: 37.8%
- PPAR signaling pathway: D, number of down-regulated genes [1]: 14
- PPAR signaling pathway: I, number of up-regulated genes [1]: 14
- PPAR signaling pathway: No. (regulated genes/genes of pathway) [1]: 28/74
- TGF-β signaling pathway: % of genes regulated [1]: 11.1%
- TGF-β signaling pathway: D, number of down-regulated genes [1]: 2
- TGF-β signaling pathway: I, number of up-regulated genes [1]: 3
- TGF-β signaling pathway: No. (regulated genes/genes of pathway) [1]: 5/45
- VEGF signaling pathway: % of genes regulated [1]: 6.5%
- VEGF signaling pathway: D, number of down-regulated genes [1]: 0
- VEGF signaling pathway: I, number of up-regulated genes [1]: 2
- VEGF signaling pathway: No. (regulated genes/genes of pathway) [1]: 2/31
- Wnt signaling pathway: % of genes regulated [1]: 10.6%
- Wnt signaling pathway: D, number of down-regulated genes [1]: 5
- Wnt signaling pathway: I, number of up-regulated genes [1]: 2
- Wnt signaling pathway: No. (regulated genes/genes of pathway) [1]: 7/66
- focal adhesion: % of genes regulated [1]: 11%
- focal adhesion: D, number of down-regulated genes [1]: 16
- focal adhesion: I, number of up-regulated genes [1]: 3
- focal adhesion: No. (regulated genes/genes of function) [1]: 19/173
- tight junction: % of genes regulated [1]: 13.6%
- tight junction: D, number of down-regulated genes [1]: 7
- tight junction: I, number of up-regulated genes [1]: 2
- tight junction: No. (regulated genes/genes of function) [1]: 9/66
- Amino acid metabolism: % of genes regulated (BP40 medium (about 40 μg BP/ml)): 8.7%
